Source: paper PMC10611619, “[^99mTc]Tc-PentixaTec: development, extensive pre-clinical evaluation, and first human experience” (European Journal of Nuclear Medicine and Molecular Imaging, 2023)
Where two headings read alike, the source gives them in different places. Where a SMILES comes first, the peptide text is derived from it. Side-chain parts run from the residue outwards. [ ]: non-standard residue; d: D form. The star is where a group is joined. 2Nal = N[C@@H](Cc1ccc2ccccc2c1)C(=O)O; dNMeOrn = CN[C@H](CCCN)C(=O)O; 4Abz = Nc1ccc(C(=O)O)cc1; X1 = NCCNCC(CNCCN)C(=O)*; dDap = NC[C@@H](N)C(=O)O

Assays:
[1] = Blood clearance / excretion in patients; assay type: in vivo, human; details: for half-life: human, whole blood, iv
Experimental: [^99mTc]Tc-PentixaTec scans were performed using a dual head gamma camera (GE Discovery NM/CT 670 Pro, Milwaukee, WI, USA). In the four patients undergoing dosimetry, planar dynamic whole body scans were performed 5 min, 30 min, and 1 h with a bed speed of 30 cm/min; 2 h, 3 h, and 5 h with a speed of 12 cm/min; and 24 h with a speed of 5 cm/min after tracer injection. SPECT/CT imaging was performed following the 3-h planar imaging with 60 views and a frame duration of 8 s. Attenuation maps were generated on the basis of low-dose CT.
Venous blood samples (2.7 mL) were drawn directly before each planar scan. A cross-calibrated well-counter (Digibase, Ametek, Oak Ridge, TN, USA) was used to measure activity in the blood samples, resulting in the average activity per mL blood. Plasma half-life was calculated using NUKFIT software.

[2] = tested on: Jurkat xenograft bearing CB17/SCID mice; test: Biodistribution in Jurkat xenograft-bearing mice, 1 h p.i.; assay type: in vivo; details: n = 5, mean ± SD
Experimental: Female CB17/SCID mice bearing subcutaneous Jurkat human T cell lymphoma xenografts (for more detailed information, see supplemental material) were injected intravenously with the respective ^99mTc-labeled tracer (5–20 MBq, 0.1–0.2 nmol/mouse) under isofluorane anesthesia and were sacrificed at 1 h post-injection (p.i.). The organs of interest were dissected, and the activity concentration in weighed tissue samples was quantified using a WIZARD^2® 2480 automatic γ-Counter from Perkin Elmer (Waltham MA, USA). Biodistribution data are given in %iD/g and represent means ± SD (groups of n = 4–5 animals). Statistical analysis (t-test) was performed using GraphPad Prism.
To establish tumor xenografts, Jurkat cells (2 – 3x10^7 cells) were suspended in a mixture of RPMI 1640 medium and Matrigel (1/1; v/v) (BD Biosciences, Heidelberg, Germany), and injected subcutaneously into the right shoulder of 6–10 weeks old CB17-SCID mice from either Charles River GmbH (Sulzfeld, Germany) or the in-house mouse breeding facility. As soon as tumors had grown to a diameter of 5–8 mm (4 – 10 weeks after inoculation), mice were used for the experiments.

C[C@@H](NC(=O)[C@@H](CCCNC(=N)N)NC(=O)[C@@H](CN)NC(=O)C(CNCCN)CNCCN)C(=O)Nc1ccc(C(=O)NCCC[C@@H]2C(=O)N[C@@H](CCCNC(=N)N)C(=O)N[C@@H](Cc3ccc4ccccc4c3)C(=O)NCC(=O)N[C@H](Cc3ccc(O)cc3)C(=O)N2C)cc1 [[^99mTc]Tc-N4-L6-CPCR4, [^99mTc]Tc-N4-dap-r-a-Abz-CPCR4, metal not drawn] (cyclo([dY][dNMeOrn]([4Abz-dA-dR-dDap-X1])R[2Nal]G))
hepatobiliary excretion [1]: no significant hepatobiliary excretion
half-life ([1]; read-out: plasma half-life, median): 19 min
half-life ([1]; read-out: plasma half-life, range): 15 to 25 min
Biodistribution Tumor (tumor accumulation) ([2]; Jurkat xenograft): 8.6 ± 1.3 %iD/g
Biodistribution Muscle [2]: 0.3 ± 0.05 %iD/g
Biodistribution Spleen [2]: 5.6 ± 0.8 %iD/g
